The values below come from patent publication US20260199234A1, “PHARMACEUTICAL COMPOSITIONS OF POLYMERIC MICELLAR CINACALCET, AND METHODS OF PREPARATION AND USE THEREOF” (HANGZHOU SHIXI PHARMACEUTICAL TECHNOLOGY CO., LTD., priority 2023, published 2026).

For data set [1] the following is noted: oral, fasted subjects; cited from earlier work.
Data set [2] can be described thus: Unbound cinacalcet fraction in plasma (30 kD ultrafiltration, RP-HPLC). Type of data set: in vitro ADME, rabbit. The following applies: Recon conc. 1 mg/ml. The protocol:
The unbound cinacalcet fractions in plasma were determined. The cinacalcet buffer solution and cinacalcet polymer micelles were mixed with rabbit plasma at 1:4 ratio, incubated at 37° C., and filtered through 30 kD ultrafiltration membrane. The filtrate and unfiltered plasma were mixed with acetonitrile at a ratio of 1:4, and the cinacalcet concentrations were determined by an RP-HPLC. Table 10 presents unbound (filtered) and total (unfiltered) cinacalcet concentrations, and calculated % unbound fractions (unbound concentration divided by total concentration).

For orientation: fraction unbound means free concentration divided by total concentration.

Each structure is given as a SMILES string.

Turning to `C[C@@H](NCCCc1cccc(C(F)(F)F)c1)c1cccc2ccccc12` [cinacalcet], in data set [1], the Absolute bioavailability was 20-25%. Further, in data set [2] (1:4 with rabbit plasma, 37° C.), the Total conc. is reported as 0.84 ± 0.01 mg/mL. Besides, the Unbound concentration in data set [2] (5 min) is 92 ± 16 µg/mL. The fraction unbound at 5 min, 0.2 mg/mL in data set [2] (rabbit, rabbit plasma, 5 min) is 0.11.
